pEC50, pIC50, pKd: −log10 of the molar value.
Assays:
BRAF V660E = BRAF V660E (Homo sapiens, UniProt P15056, V600E); test: KD BRAF V660E (Table 1; no method described); format: binding
BRAF = BRAF (Homo sapiens, UniProt P15056); test: KD BRAF (Table 1; no method described); format: binding
[1] = test system: A375 cells (V600E mutated BRAF), ERK phospho-T202/Y204; test: HTRF assay for P-ERK determination in A375 cells (BRAF inhibition); format: cell-based; conditions: Homo sapiens, A-375, 1 hour drug incubation, DMSO = 100%, 10 μM Dabrafenib = 0%, top concentration 10 μM, read-out: P-ERK_A375: IC50
Description: (§1) A375 is a cellular cancer model expressing V600E mutated BRAF and HCT116 a cellular cancer model expressing WT BRAF. First generation BRAF inhibitors such as e.g. dabrafenib induce a paradox effect on tumour cells in that they inhibit the growth of V600E mutated BRAF cells (such as e.g. A375), while they activate growth in WT BRAF cells (such as e.g. HCT 116). ERK 1,2 phosphorylation (terminal member of the phosphorylation cascade of the MAPK pathway) is hereafter reported as main readout for the activation status of the MAPK pathway. DMEM no-phenol red medium supplemented with L-glutamine was purchased from (Thermo Fisher Scientific). Fetal bovine serum (FBS) was purchased from VWR. Advanced ERK phospho-T202/Y204 kit—10,000 tests was purchased from Cisbio cat #64AERPEH. A375 (catalog #CRL-1619) and HCT116 (catalog #CCL-247) cells were originally obtained from American type Culture Collection (ATCC) and banked by the Roche repository. 384-Well microplates ultized were purchased from Greiner Bio-One, 384-well, (With Lid, HiBase, Low volume cat 784-080).
(§2) HTRF Assay for P-ERK Determination in A375 or HCT116 Cells
(§3) Prior to the assay, A375 and HCT116 cell lines are maintained in DMEM no-phenol red medium supplemented with 10% fetal bovine serum (FBS). Following compound treatment, P-ERK levels are determined by measuring FRET fluorescence signal induced by selective binding of two antibodies provided in the mentioned kit (Cisbio cat #64AERPEH) on ERK protein when phosphorylated at Thr202/Tyr204. Briefly, 8000 cells/well in 12 μl media/well are plated in the 384-well plate and left overnight in the incubator (at 37° C. with 5% CO2-humidified atmosphere), the following day the plate is treated in duplicate with test compounds, dabrafenib and PLX8394 (the latter two as controls) at the following final drug concentrations: 10 μM, 3 μM, 1 μM, 0.3 μM, 0.1 μM, 0.03 μM, 0.01 μM, 0.003 μM and 0.001 μM. All wells are subjected to DMSO normalization and drug incubation occurs for 1 hour. Then, 4 μl of a 4× lysis buffer supplied with the kit are added to the wells, the plate is then centrifuged for 30 second (3000 rpm) and incubated on a plate shaker for 1 h at rt.
(§4) At the end of the incubation 4 μl/well of advanced P-ERK antibody solution (prepared according to manufacturer's instruction) followed by 4 μl/well of criptate P-ERK antibody solution (prepared according to manufacturer's instruction) (Cisbio cat #64AERPEH) are added to test wells.
(§5) In order to allow proper data normalization, control wells non drug treated reported in the following table are always included in each plate (according to manufacturer's instruction):
(§6) The plate is then centrifuged at 3000 rpm for 30 seconds, sealed to prevent evaporation and incubated overnight in the dark at room temperature. The plate is then analyzed and fluorescence emission value collected through a Pherastast FSX (BMG Labtech) apparatus at […]. The obtained fluorescence values are processed according to the formula Ratio=[…]*10000 then the average of the ratio on the blank is subtracted to all values.
Data are normalized in the case of A375 cells (BRAF inhibition) considering the average of the ratio (blank subtracted) derived by DMSO only treated cells as 100% and by considering the average of the ratio (blank subtracted) derived by 10 μM Dabrafenib treated cells as 0%. Mean of the normalized points are fitted with sigmoidal curve and IC50 values are determined.

[2] = test system: HCT116 cells (WT BRAF), ERK phospho-T202/Y204; test: HTRF assay for P-ERK determination in HCT116 cells (BRAF activation, paradox); format: cell-based; conditions: for pEC50: Homo sapiens, HCT-116, HCT116 cells, 1 hour drug incubation, activation relative to maximum Dabrafenib-mediated activation (100%), top concentration 10 μM, read-out: P-ERK_HCT-116: EC50—50PCT; for Fold Selectivity HCT-116 EC50-50/ A375: ratio of P-ERK HCT-116 EC50-50PCT to P-ERK A375 IC50
Description: as §1, §2, §3, §4, §5, §6
Data are normalized in the case of HCT116 cells (BRAF activation) considering the average of the ratio (blank subtracted) derived by DMSO only treated cells as 0% and by considering the average of the ratio (blank subtracted) derived by Dabrafenib treated cells at the concentration which provides the highest signal as 100%. Individual points are fitted with either sigmoidal or bell shape curves, the percentage of activation compared to maximum Dabrafenib-mediated activation is determined.

Chain of BRAF V660E (P15056 2-766 V600E): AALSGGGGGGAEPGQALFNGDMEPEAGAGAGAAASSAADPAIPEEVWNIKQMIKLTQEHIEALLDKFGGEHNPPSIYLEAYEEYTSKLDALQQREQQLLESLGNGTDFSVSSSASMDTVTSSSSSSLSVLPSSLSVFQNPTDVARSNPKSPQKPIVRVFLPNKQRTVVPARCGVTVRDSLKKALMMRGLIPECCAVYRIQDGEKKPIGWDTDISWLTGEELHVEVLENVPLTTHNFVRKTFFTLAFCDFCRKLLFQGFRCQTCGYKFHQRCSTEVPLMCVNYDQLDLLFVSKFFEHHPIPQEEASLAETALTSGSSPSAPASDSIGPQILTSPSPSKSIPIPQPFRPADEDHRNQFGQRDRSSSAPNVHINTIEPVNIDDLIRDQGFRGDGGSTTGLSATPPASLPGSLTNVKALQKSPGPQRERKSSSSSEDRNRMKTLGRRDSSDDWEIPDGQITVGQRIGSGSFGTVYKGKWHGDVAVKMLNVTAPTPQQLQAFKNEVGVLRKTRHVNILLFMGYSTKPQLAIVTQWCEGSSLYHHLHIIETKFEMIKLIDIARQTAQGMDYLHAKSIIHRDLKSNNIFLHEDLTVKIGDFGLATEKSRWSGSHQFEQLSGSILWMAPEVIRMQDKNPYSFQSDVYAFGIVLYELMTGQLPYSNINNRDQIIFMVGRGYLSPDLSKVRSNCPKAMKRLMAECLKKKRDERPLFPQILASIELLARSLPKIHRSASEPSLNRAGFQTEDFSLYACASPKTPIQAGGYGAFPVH
Chain of BRAF (P15056 whole entry): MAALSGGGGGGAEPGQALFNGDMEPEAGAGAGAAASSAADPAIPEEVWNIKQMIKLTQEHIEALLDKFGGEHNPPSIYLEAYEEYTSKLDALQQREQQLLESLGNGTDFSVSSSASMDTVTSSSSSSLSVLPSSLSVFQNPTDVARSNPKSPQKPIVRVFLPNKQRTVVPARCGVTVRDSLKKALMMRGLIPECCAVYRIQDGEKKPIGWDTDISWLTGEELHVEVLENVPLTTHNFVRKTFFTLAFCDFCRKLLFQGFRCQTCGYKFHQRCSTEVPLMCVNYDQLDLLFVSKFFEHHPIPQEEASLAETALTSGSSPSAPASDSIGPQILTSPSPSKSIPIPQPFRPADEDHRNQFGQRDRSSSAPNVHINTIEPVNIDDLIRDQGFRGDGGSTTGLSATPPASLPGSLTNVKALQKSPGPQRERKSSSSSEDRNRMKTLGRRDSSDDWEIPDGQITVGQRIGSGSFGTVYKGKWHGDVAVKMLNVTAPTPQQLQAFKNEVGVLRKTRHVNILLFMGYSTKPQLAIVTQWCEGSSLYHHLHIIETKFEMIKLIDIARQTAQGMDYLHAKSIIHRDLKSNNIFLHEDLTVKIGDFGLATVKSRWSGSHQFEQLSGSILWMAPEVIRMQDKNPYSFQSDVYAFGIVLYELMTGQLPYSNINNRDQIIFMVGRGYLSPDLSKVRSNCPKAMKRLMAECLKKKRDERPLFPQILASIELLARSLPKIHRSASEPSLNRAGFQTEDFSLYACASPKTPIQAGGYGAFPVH

| SMILES | pKd (BRAF V660E) | pKd (BRAF) | pIC50 [1] | pEC50 [2] | Fold Selectivity HCT-116 EC50-50/ A375 [2] |
| --- | --- | --- | --- | --- | --- |
| CC(C)(C)OC(=O)N1CCC(n2c(=O)c(-c3c(F)ccc(NS(=O)(=O)N4CC[C@@H](F)C4)c3F)cc3cnc(NCC4CC4)nc32)C1 (mixture of isomers) [Example 38, tert-Butyl (3RS)-3-[2-(cyclopropylmethylamino)-6-[2,6-difluoro-3-[[(3R)-3-fluoropyrrolidin-1-yl]sulfonylamino]phenyl]-7-oxopyrido[2,3-d]pyrimidin-8-yl]pyrrolidine-1-carboxylate] | 5.55 | 5.85 | 6.08 | ≤ 5.00 | 12.1 |
| Cl.O=c1c(-c2c(F)ccc(NS(=O)(=O)N3CC[C@@H](F)C3)c2F)cc2cnc(NCC3CC3)nc2n1C1CCNC1 (mixture of isomers) [Example 40, (3R)-N-[3-[2-(cyclopropylmethylamino)-7-oxo-8-[(3RS)-pyrrolidin-3-yl]pyrido[2,3-d]pyrimidin-6-yl]-2,4-difluorophenyl]-3-fluoropyrrolidine-1-sulfonamide hydrochloride] | 6.39 | 6.84 | 5.42 | ≤ 5.00 | 2.6 |
| CC(=O)N1CCC(n2c(=O)c(-c3c(F)ccc(NS(=O)(=O)N4CC[C@@H](F)C4)c3F)cc3cnc(NCC4CC4)nc32)C1 (mixture of isomers) [Example 42, (3R)-N-[3-[8-((3RS)-1-acetylpyrrolidin-3-yl)-2-(cyclopropylmethylamino)-7-oxopyrido[2,3-d]pyrimidin-6-yl]-2,4-difluorophenyl]-3-fluoropyrrolidine-1-sulfonamide] | 7.30 | 7.65 | 6.42 | 5.32 | 12.8 |
| CC(=O)N[C@@H]1CC[C@@H](Nc2ncc3cc(-c4c(F)ccc(NS(=O)(=O)N5CC[C@@H](F)C5)c4F)c(=O)n(C)c3n2)C1 (racemic) [Example 23, N-[(1R,3R)-3-[[6-[2,6-difluoro-3-[[(3R)-3-fluoropyrrolidin-1-yl]sulfonylamino]phenyl]-8-methyl-7-oxopyrido[2,3-d]pyrimidin-2-yl]amino]cyclopentyl]acetamide AND N-[(1S,3S)-3-[[6-[2,6-difluoro-3-[[(3R)-3-fluoropyrrolidin-1-yl]sulfonylamino]phenyl]-8-methyl-7-oxopyrido[2,3-d]pyrimidin-2-yl]amino]cyclopentyl]acetamide] | 7.68 | 8.12 | 7.16 | 5.39 | 59.4 |
| Cn1c(=O)c(-c2c(F)ccc(NS(=O)(=O)N3CC[C@@H](F)C3)c2F)cc2cnc(NCCC3CCN(C(=O)OC(C)(C)C)CC3)nc21 [Example 1, tert-Butyl 4-[2-[[6-[2,6-difluoro-3-[[(3R)-3-fluoropyrrolidin-1-yl]sulfonylamino]phenyl]-8-methyl-7-oxopyrido[2,3-d]pyrimidin-2-yl]amino]ethyl]piperidine-1-carboxylate] | 6.72 | 6.97 | 7.20 | 5.47 | 53.1 |
| Cn1c(=O)c(-c2c(F)ccc(NS(=O)(=O)N3CCCC3)c2F)cc2cnc(NCCC3CCN(C(=O)OC(C)(C)C)CC3)nc21 [Example 8, tert-butyl 4-[2-[[6-[2,6-difluoro-3-(pyrrolidin-1-ylsulfonylamino)phenyl]-8-methyl-7-oxopyrido[2,3-d]pyrimidin-2-yl]amino]ethyl]piperidine-1-carboxylate] | 6.50 | 6.58 | 6.62 | 5.01 | 40.5 |

The next lines start with the values.

| pKd (BRAF V660E) | pKd (BRAF) | pIC50 [1] | pEC50 [2] | Fold Selectivity HCT-116 EC50-50/ A375 [2] | SMILES |
| --- | --- | --- | --- | --- | --- |
| 7.64 | 8.10 | 8.22 | 6.31 | 81.8 | Cn1c(=O)c(-c2c(F)ccc(NS(=O)(=O)N3CC[C@@H](F)C3)c2F)cc2cnc(NCCc3ccccc3)nc21 [Example 2, (3R)-N-[2,4-difluoro-3-[8-methyl-7-oxo-2-(2-phenylethylamino)pyrido[2,3-d]pyrimidin-6-yl]phenyl]-3-fluoropyrrolidine-1-sulfonamide] |
| 7.32 | 7.82 | 7.88 | 6.04 | 69.8 | Cn1c(=O)c(-c2c(F)ccc(NS(=O)(=O)N3CC[C@@H](F)C3)c2F)cc2cnc(NCCCC(=O)OC(C)(C)C)nc21 [Example 3, tert-butyl 4-[[6-[2,6-difluoro-3-[[(3R)-3-fluoropyrrolidin-1-yl]sulfonylamino]phenyl]-8-methyl-7-oxopyrido[2,3-d]pyrimidin-2-yl]amino]butanoate] |
| 7.00 | 7.40 | 7.32 | ≤ 5.00 | >211.0 | Cn1c(=O)c(-c2c(F)ccc(NS(=O)(=O)N3CC[C@@H](F)C3)c2F)cc2cnc(NCCOCCOCCO)nc21 [Example 4, (3R)-N-[2,4-difluoro-3-[2-[2-[2-(2-hydroxyethoxy)ethoxy]ethylamino]-8-methyl-7-oxopyrido[2,3-d]pyrimidin-6-yl]phenyl]-3-fluoropyrrolidine-1-sulfonamide] |
| 6.94 | 7.33 | 7.37 | 6.40 | 9.2 | Cn1c(=O)c(-c2c(F)ccc(NS(=O)(=O)N3CC[C@@H](F)C3)c2F)cc2cnc(NCCCc3ccccc3)nc21 [Example 5, (3R)-N-[2,4-difluoro-3-[8-methyl-7-oxo-2-(3-phenylpropylamino)pyrido[2,3-d]pyrimidin-6-yl]phenyl]-3-fluoropyrrolidine-1-sulfonamide] |
| 6.92 | 7.45 | 7.87 | 6.15 | 52.9 | Cn1c(=O)c(-c2c(F)ccc(NS(=O)(=O)N3CC[C@@H](F)C3)c2F)cc2cnc(NCCOc3ccccc3)nc21 [Example 6, (3R)-N-[2,4-difluoro-3-[8-methyl-7-oxo-2-(2-phenoxyethylamino)pyrido[2,3-d]pyrimidin-6-yl]phenyl]-3-fluoropyrrolidine-1-sulfonamide] |
| 6.55 | 7.04 | 7.51 | 5.66 | 70.5 | Cn1c(=O)c(-c2c(F)ccc(NS(=O)(=O)N3CC[C@@H](F)C3)c2F)cc2cnc(NC3CCCC3)nc21 [Example 7, (3R)-N-[3-[2-(cyclopentylamino)-8-methyl-7-oxopyrido[2,3-d]pyrimidin-6-yl]-2,4-difluorophenyl]-3-fluoropyrrolidine-1-sulfonamide] |
| – | – | 7.57 | 5.83 | 55.1 | Cn1c(=O)c(-c2c(F)ccc(NS(=O)(=O)N3CC[C@@H](F)C3)c2F)cc2cnc(NCCN3CCN(C(=O)OC(C)(C)C)CC3)nc21 [Example 45, tert-butyl 4-[2-[[6-[2,6-difluoro-3-[[(3R)-3-fluoropyrrolidin-1-yl]sulfonylamino]phenyl]-8-methyl-7-oxopyrido[2,3-d]pyrimidin-2-yl]amino]ethyl]piperazine-1-carboxylate] |
